This assay deals with Human immunodeficiency virus 1. Kind of assay: Antiviral activity against HIV1 assessed as protection against virus-induced cytopathogenicity. The assay is classed as functional, organism-based.

≈ marks a conversion by molar mass, not a printed value.

In general, EC50 refers to the concentration giving half of the maximal effect.

As to `C=C(C)[C@H](CC=C(C)C)C[C@@]12C[C@@H](CC=C(C)C)C(C)(C)[C@@](CC=C(C)C)(C(=O)C(C(=O)c3ccc(O)c(O)c3)=C1O)C2=O` [GUTTIFERONE F], the EC50 was determined as 23 µg/mL (≈ 38.2 µM).

Values taken from ChEMBL document CHEMBL1157996, “Guttiferone F, the first prenylated benzophenone from Allanblackia stuhlmannii” (J Nat Prod, 1999).
